Format in all cases: in vivo
Series [1] relates to Echinochloa oryzacola Vasing. Kind of series: Test Example 1: herbicidal activity, application before weed generation in submerged conditions (symbol A). Conditions: application herbicide amount 320 g/ha. In short, it runs like this:
(§1)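 Greenhouse growth at 25–30 °C lasted 3 weeks after treatment, when each weed was graded 0–5 by herbicidal ratio. Treatment was a diluted emulsion applied to the water surface of 4 cm-submerged alluvial soil on the sowing day.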

The subject of series [2] is Scirpus juncoides. The experiment in a line: Test Example 1: herbicidal activity, application before weed generation in submerged conditions (symbol B). Conditions: application herbicide amount 320 g/ha. In short, it runs like this: as §1
Series [3] concerns transplanted rice plant. Kind of series: Test Example 1: effect on crop, application before weed generation in submerged conditions (symbol a). Conditions: application herbicide amount 320 g/ha. The essentials:
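Rice at 2.5 leaf stage transplanted into submerged soil (4 cm depth) sown with three weed species; herbicide applied before weed emergence.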

Series [4] concerns Cyperus difformis. Kind of series: Test Example 3: herbicidal effect by foliage application, Wagner pot (symbol E). Conditions: application herbicide amount 320 g/ha. In short, it runs like this: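 Herbicidal activity was rated three weeks after a foliar spray of diluted emulsion concentrate, applied at a predetermined dose to plants grown for 14 days from seed in waterlogged alluvial soil within a 25–30 °C greenhouse.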

In series [5] the test system is Alopecurus myosuroides. The experiment in a line: Test Example 4: herbicidal effect by soil treatment (symbol J). Conditions: application herbicide amount 320 g/ha. The essentials:
(§2)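 Seeds were sown in sterilized diluvial soil, covered with about 1.5 cm of soil, and the soil surface was sprayed with a water-diluted emulsion of the compound at a predetermined rate. Plants grew in a greenhouse at 25° C. to 30° C.; effects were scored visually 3 weeks after application.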

For series [6], the system named is Galium spurium. Kind of series: Test Example 4: herbicidal effect by soil treatment (symbol Q). Conditions: application herbicide amount 320 g/ha. The essentials: as §2
Series [7] concerns corn. The experiment in a line: Test Example 4: effect on crop by soil treatment (symbol c). Conditions: application herbicide amount 320 g/ha. The essentials:
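Crop seed is sown in spots together with several weed species in a box of sterilized diluvial soil. It is covered by about 1.5 cm of soil and kept in a greenhouse held between 25° C. and 30° C.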

Series [8] has as its system soybean. Kind of series: Test Example 4: effect on crop by soil treatment (symbol d). Conditions: application herbicide amount 320 g/ha. The essentials:
(§3)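 Plants are raised in a greenhouse (25° C. to 30° C.) from spot-sown seed, which sits under about 1.5 cm of sterilized diluvial soil in a box shared with weed species.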

Series [9] has as its system rice. Kind of series: Test Example 4: effect on crop by soil treatment (symbol b). Conditions: application herbicide amount 320 g/ha. In short, it runs like this:
as §3

The subject of series [10] is wheat. Kind of series: Test Example 4: effect on crop by soil treatment (symbol e). Conditions: application herbicide amount 320 g/ha. In short, it runs like this: as §3
For series [11], the system named is Setaria viridis. The experiment in a line: Test Example 5: herbicidal effect by foliage application, plastic box (symbol G). Conditions: 320 g/ha, 3 weeks after application. In short, it runs like this:
(§4)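 Emulsion formulation, diluted with water to the intended rate, was applied uniformly to leaves by small sprayer. Recipients were 14-day greenhouse-grown seedlings (25° C. to 30° C.). Assessment followed at 3 weeks.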

Series [12] deals with Alopecurus myosuroides. Kind of series: Test Example 5: herbicidal effect by foliage application, plastic box (symbol J). Conditions: 320 g/ha, 3 weeks after application. In short, it runs like this: as §4
Series [13] concerns Lolium multiflorum Lam. Kind of series: Test Example 5: herbicidal effect by foliage application, plastic box (symbol K). Conditions: 320 g/ha, 3 weeks after application. The essentials: as §4
Series [14] relates to Galium spurium. Kind of series: Test Example 5: herbicidal effect by foliage application, plastic box (symbol Q). Conditions: 320 g/ha, 3 weeks after application. In short, it runs like this:
as §4

Series [15] relates to Stellaria media. The experiment in a line: Test Example 4: herbicidal effect by soil treatment (symbol P). Conditions: application herbicide amount 320 g/ha. In short, it runs like this: as §2

The text below walks through data of US11000033B2, “Ketone or oxime compound, and herbicide” (NISSAN CHEMICAL CORPORATION, priority 2014, dated 2021).

Regarding `CCC(CCC1CC(O)=C(c2c(C)cc(C)cc2C)C1=O)=NOC` (mixture of isomers) [4-001], in series [1], the “Herbicidal effect grade, A: Echinochloa oryzacola Vasing.” value was 0 (Herbicidal ratio of 5% or lower (almost no effect)). For the same molecule, in series [2], the “Herbicidal effect grade, B: Scirpus juncoides” value (“Herbicidal effect grade, B” below) is given as 0 (Herbicidal ratio of 5% or lower (almost no effect)). Besides, the “Effect grade on crop, a: transplanted rice plant” value (“Effect grade on crop” below) in series [3] is reported as 0 (Herbicidal ratio of 5% or lower (almost no effect)). Moreover, in series [4], the “herbicidal effect on E, grade 0-5” value is given as 0 (Herbicidal ratio of 5% or lower (almost no effect)). Besides, the “J: Alopecurus myosuroides, herbicidal effect grade” value (from here on “J: Alopecurus myosuroides”) in series [5] was 3 (Herbicidal ratio of 40% or higher and lower than 70%); in series [12], 5 (Herbicidal ratio of 90% or more (almost completely withered)). Besides, the “Q: Galium spurium, herbicidal effect grade” value (“Q: Galium spurium” below) in series [6] and in [14] was 0 (Herbicidal ratio of 5% or lower (almost no effect)) throughout. The “c: corn, effect on crop grade” value in series [7] was 0 (Herbicidal ratio of 5% or lower (almost no effect)). The “d: soybean, effect on crop grade” value in series [8] is on record as 0 (Herbicidal ratio of 5% or lower (almost no effect)). Also, in series [9], the “b: directly sowed rice plant, effect on crop grade” value (shortened to “b: directly sowed rice plant”) is reported as 5 (Herbicidal ratio of 90% or more (almost completely withered)). Further, the “e: wheat, effect on crop grade” value in [10] is on record as 0 (Herbicidal ratio of 5% or lower (almost no effect)). In series [11], the “G: Setaria viridis, herbicidal effect grade” value (shortened to “G: Setaria viridis”) was 1 (Herbicidal ratio of 5% or higher and lower than 20%). Moreover, the “K: Lolium multiflorum Lam., herbicidal effect grade” value in [13] is 5 (Herbicidal ratio of 90% or more (almost completely withered)).
In the case of `CON=C(C)CC1CC(OCC(=O)OC)=C(c2c(C)cc(C)cc2C)C1=O` (stereo not shown) [1-012], the “Herbicidal effect grade, A: Echinochloa oryzacola Vasing.” value in series [1] is recorded as 0 (Herbicidal ratio of 5% or lower (almost no effect)). In addition, in [2], the “Herbicidal effect grade, B” value is given as 0 (Herbicidal ratio of 5% or lower (almost no effect)). In addition, the “Effect grade on crop” value in series [3] was 0 (Herbicidal ratio of 5% or lower (almost no effect)). In series [4], the “herbicidal effect on E, grade 0-5” value was 0 (Herbicidal ratio of 5% or lower (almost no effect)). In addition, the “J (Alopecurus myosuroides) herbicidal effect grade” value in series [5] is listed as 0 (Herbicidal ratio of 5% or lower (almost no effect)). Also, in series [6], the “Q (Galium spurium) herbicidal effect grade” value is listed as 0 (Herbicidal ratio of 5% or lower (almost no effect)). The “c (corn) effect on crop grade” value in [7] is 0 (Herbicidal ratio of 5% or lower (almost no effect)). For the same molecule, the “d (soybean) effect on crop grade” value in series [8] was 0 (Herbicidal ratio of 5% or lower (almost no effect)). In [9], the “b (directly sowed rice plant) effect on crop grade” value is reported as 0 (Herbicidal ratio of 5% or lower (almost no effect)). Moreover, the “e (wheat) effect on crop grade” value in [10] is 0 (Herbicidal ratio of 5% or lower (almost no effect)). Moreover, the “G: Setaria viridis” value in series [11] is given as 0 (Herbicidal ratio of 5% or lower (almost no effect)). For the same molecule, in series [12], the “J: Alopecurus myosuroides” value is listed as 0 (Herbicidal ratio of 5% or lower (almost no effect)). Moreover, in series [13], the “K: Lolium multiflorum Lam., herbicidal effect grade” value is 0 (Herbicidal ratio of 5% or lower (almost no effect)). Besides, the “Q: Galium spurium” value in [14] was 0 (Herbicidal ratio of 5% or lower (almost no effect)).
Take `Cc1cc(C)c(C2=C(O)CC(CC(=O)C3CC3)C2=O)c(C)c1` (stereo not shown) [2-017]: in series [1], the “Herbicidal effect grade, A: Echinochloa oryzacola Vasing.” value is 5 (Herbicidal ratio of 90% or more (almost completely withered)). Further, in series [2], the “Herbicidal effect grade, B” value is 5 (Herbicidal ratio of 90% or more (almost completely withered)). In addition, in series [3], the “Effect grade on crop” value is listed as 5 (Herbicidal ratio of 90% or more (almost completely withered)). For the same molecule, the “herbicidal effect on E, grade 0-5” value in [4] is 5 (Herbicidal ratio of 90% or more (almost completely withered)). Also, the “J: Alopecurus myosuroides” value in [5] is 3 (Herbicidal ratio of 40% or higher and lower than 70%); in series [12], 4 (Herbicidal ratio of 70% or higher and lower than 90%). Moreover, the “P: Stellaria media, herbicidal effect grade” value (from here on “P: Stellaria media”) in series [15] was 0 (Herbicidal ratio of 5% or lower (almost no effect)). Also, in series [6], the “Q: Galium spurium” value is recorded as 0 (Herbicidal ratio of 5% or lower (almost no effect)). For the same molecule, the “c: corn, effect on crop grade” value in series [7] is 0 (Herbicidal ratio of 5% or lower (almost no effect)). Moreover, the “d: soybean, effect on crop grade” value in series [8] is on record as 0 (Herbicidal ratio of 5% or lower (almost no effect)). The “b: directly sowed rice plant” value in series [9] is 5 (Herbicidal ratio of 90% or more (almost completely withered)). Also, in series [10], the “e: wheat, effect on crop grade” value is listed as 0 (Herbicidal ratio of 5% or lower (almost no effect)). The “G: Setaria viridis” value in series [11] is on record as 5 (Herbicidal ratio of 90% or more (almost completely withered)). Further, in series [13], the “K: Lolium multiflorum Lam., herbicidal effect grade” value was 5 (Herbicidal ratio of 90% or more (almost completely withered)).
On to `CCC(C)C(=O)CC1CC(O)=C(c2c(C)cc(C)cc2C)C1=O` (stereo not shown) [2-024], for which, in series [1], the “Herbicidal effect grade, A: Echinochloa oryzacola Vasing.” value was 2 (Herbicidal ratio of 20% or higher and lower than 40%). The “Herbicidal effect grade, B” value in series [2] is listed as 0 (Herbicidal ratio of 5% or lower (almost no effect)). The “Effect grade on crop” value in [3] is 4 (Herbicidal ratio of 70% or higher and lower than 90%). Further, in series [4], the “herbicidal effect on E, grade 0-5” value is given as 0 (Herbicidal ratio of 5% or lower (almost no effect)). For the same molecule, the “J: Alopecurus myosuroides” value in series [5] is 0 (Herbicidal ratio of 5% or lower (almost no effect)); in [12], 4 (Herbicidal ratio of 70% or higher and lower than 90%). Moreover, the “P: Stellaria media” value in series [15] is 0 (Herbicidal ratio of 5% or lower (almost no effect)). Moreover, the “Q: Galium spurium” value in [6] is given as 0 (Herbicidal ratio of 5% or lower (almost no effect)). In addition, the “c: corn, effect on crop grade” value in [7] is 0 (Herbicidal ratio of 5% or lower (almost no effect)). Besides, the “d: soybean, effect on crop grade” value in series [8] is recorded as 0 (Herbicidal ratio of 5% or lower (almost no effect)). For the same molecule, in series [9], the “b: directly sowed rice plant” value was 5 (Herbicidal ratio of 90% or more (almost completely withered)). Besides, the “e: wheat, effect on crop grade” value in series [10] was 0 (Herbicidal ratio of 5% or lower (almost no effect)). In addition, the “G: Setaria viridis” value in series [11] is recorded as 5 (Herbicidal ratio of 90% or more (almost completely withered)). Moreover, the “K: Lolium multiflorum Lam., herbicidal effect grade” value in series [13] is 5 (Herbicidal ratio of 90% or more (almost completely withered)).
For the molecule `CON=C(C)CC1CC(O)=C(c2c(C)cc(C)cc2OC)C1=O` (stereo not shown) [6-037, 3-hydroxy-2-(2-methoxy-4,6-dimethylphenyl)-5-{2-(methoxyimino)propyl}cyclopent-2-enone], the “Herbicidal effect grade, A: Echinochloa oryzacola Vasing.” value in series [1] is on record as 5 (Herbicidal ratio of 90% or more (almost completely withered)). Also, the “Herbicidal effect grade, B” value in series [2] is recorded as 5 (Herbicidal ratio of 90% or more (almost completely withered)). For the same molecule, in series [3], the “Effect grade on crop” value was 5 (Herbicidal ratio of 90% or more (almost completely withered)). Also, in series [4], the “herbicidal effect on E, grade 0-5” value is given as 5 (Herbicidal ratio of 90% or more (almost completely withered)). Further, the “J: Alopecurus myosuroides” value in series [5] and in series [12] was 5 (Herbicidal ratio of 90% or more (almost completely withered)) each time. Further, in [15], the “P: Stellaria media” value is listed as 0 (Herbicidal ratio of 5% or lower (almost no effect)). Besides, in [6], the “Q: Galium spurium” value was 0 (Herbicidal ratio of 5% or lower (almost no effect)). For the same molecule, the “c: corn, effect on crop grade” value in series [7] is given as 5 (Herbicidal ratio of 90% or more (almost completely withered)). In [8], the “d: soybean, effect on crop grade” value was 2 (Herbicidal ratio of 20% or higher and lower than 40%). The “b: directly sowed rice plant” value in series [9] is given as 5 (Herbicidal ratio of 90% or more (almost completely withered)). In addition, in [10], the “e: wheat, effect on crop grade” value was 5 (Herbicidal ratio of 90% or more (almost completely withered)). Also, the “G: Setaria viridis” value in [11] is given as 5 (Herbicidal ratio of 90% or more (almost completely withered)). In [13], the “K: Lolium multiflorum Lam., herbicidal effect grade” value is 5 (Herbicidal ratio of 90% or more (almost completely withered)).
